Reference: PMC2788219, “The Acrylamide (S)-2 As a Positive and Negative Modulator of Kv7 Channels Expressed in Xenopus laevis Oocytes” (PLoS ONE, 2009)

Legend:
Format in all cases: cell-based
Kv7.5 = biological target: T1, Kv7.5 (Homo sapiens, UniProt Q9NR82); assay: two-electrode voltage clamp in Xenopus oocytes, […]; current […] of control at +[…] mV; conditions: read-out: % of control current at +40 mV (10 μM)
T1 construct: gene KCNQ5

Kv7.1 = biological target: T2, Kv7.1 (Homo sapiens, UniProt P51787); assay: two-electrode voltage clamp in Xenopus oocytes, […]; weak inhibition; conditions: read-out: % of control current at +40 mV (10 μM)
T2 construct: gene KCNQ1
T2 sequence (P51787 1-676): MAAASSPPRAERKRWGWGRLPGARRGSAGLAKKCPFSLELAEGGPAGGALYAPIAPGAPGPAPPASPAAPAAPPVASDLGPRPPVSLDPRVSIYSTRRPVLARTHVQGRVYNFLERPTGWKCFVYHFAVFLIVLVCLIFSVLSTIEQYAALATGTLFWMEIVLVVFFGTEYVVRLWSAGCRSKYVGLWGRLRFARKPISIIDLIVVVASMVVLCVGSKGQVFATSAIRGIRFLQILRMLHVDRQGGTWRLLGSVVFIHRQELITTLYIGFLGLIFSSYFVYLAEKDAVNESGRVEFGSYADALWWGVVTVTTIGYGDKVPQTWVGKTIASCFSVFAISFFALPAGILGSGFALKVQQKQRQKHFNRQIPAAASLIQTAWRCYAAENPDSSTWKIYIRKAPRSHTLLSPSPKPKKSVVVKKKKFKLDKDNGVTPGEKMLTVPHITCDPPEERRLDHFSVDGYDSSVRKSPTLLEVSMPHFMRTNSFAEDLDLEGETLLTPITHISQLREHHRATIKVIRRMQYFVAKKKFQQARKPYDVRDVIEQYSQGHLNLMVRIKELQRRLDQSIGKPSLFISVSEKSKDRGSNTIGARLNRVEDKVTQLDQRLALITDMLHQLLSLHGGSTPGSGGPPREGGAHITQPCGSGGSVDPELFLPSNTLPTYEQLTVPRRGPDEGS

Kv7.2 = biological target: T3, Kv7.2 (Homo sapiens, UniProt O43526); assay: […] flux in transfected CHO cells; two-electrode voltage clamp in Xenopus oocytes
T3 construct: gene KCNQ2
T3 sequence (O43526 whole entry): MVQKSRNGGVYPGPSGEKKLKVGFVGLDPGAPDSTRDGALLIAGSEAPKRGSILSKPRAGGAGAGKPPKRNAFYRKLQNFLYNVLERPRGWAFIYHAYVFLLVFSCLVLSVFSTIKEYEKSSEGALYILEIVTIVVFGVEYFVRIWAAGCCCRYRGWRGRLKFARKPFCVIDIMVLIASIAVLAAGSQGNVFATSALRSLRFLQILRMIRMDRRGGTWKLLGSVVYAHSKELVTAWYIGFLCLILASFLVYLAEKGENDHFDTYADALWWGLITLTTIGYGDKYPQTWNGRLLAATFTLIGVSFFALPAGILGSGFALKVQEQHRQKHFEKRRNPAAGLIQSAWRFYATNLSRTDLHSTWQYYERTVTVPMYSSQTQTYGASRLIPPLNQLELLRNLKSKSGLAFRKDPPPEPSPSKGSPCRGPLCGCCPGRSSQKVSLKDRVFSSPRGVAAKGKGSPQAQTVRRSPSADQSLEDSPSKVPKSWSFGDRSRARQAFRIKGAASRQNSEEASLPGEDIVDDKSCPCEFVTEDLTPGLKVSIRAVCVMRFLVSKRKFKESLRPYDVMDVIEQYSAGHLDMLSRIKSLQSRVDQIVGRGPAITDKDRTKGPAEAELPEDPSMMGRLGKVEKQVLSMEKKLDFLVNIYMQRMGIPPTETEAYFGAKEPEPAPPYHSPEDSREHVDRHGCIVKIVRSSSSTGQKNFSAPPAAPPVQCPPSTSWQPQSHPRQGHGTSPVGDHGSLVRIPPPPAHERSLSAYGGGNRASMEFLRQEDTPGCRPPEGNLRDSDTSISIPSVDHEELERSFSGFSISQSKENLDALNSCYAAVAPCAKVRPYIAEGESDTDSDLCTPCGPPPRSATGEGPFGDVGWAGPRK

Kv7.2-W236L = biological target: T4, Kv7.2-W236L (Homo sapiens, UniProt O43526, W236L); assay: […] flux in transfected CHO cells; two-electrode voltage clamp in Xenopus oocytes (inhibition)
T4 construct: gene KCNQ2
T4 sequence (O43526 whole entry W236L): as the sequence (O43526 whole entry) above, with W236L counted along it

Kv7.4 = biological target: T5, Kv7.4 (Homo sapiens, UniProt P56696); assay: […] flux in transfected CHO cells; two-electrode voltage clamp in Xenopus oocytes; W242L loss of sensitivity
T5 construct: gene KCNQ4
T5 sequence (P56696 1-695): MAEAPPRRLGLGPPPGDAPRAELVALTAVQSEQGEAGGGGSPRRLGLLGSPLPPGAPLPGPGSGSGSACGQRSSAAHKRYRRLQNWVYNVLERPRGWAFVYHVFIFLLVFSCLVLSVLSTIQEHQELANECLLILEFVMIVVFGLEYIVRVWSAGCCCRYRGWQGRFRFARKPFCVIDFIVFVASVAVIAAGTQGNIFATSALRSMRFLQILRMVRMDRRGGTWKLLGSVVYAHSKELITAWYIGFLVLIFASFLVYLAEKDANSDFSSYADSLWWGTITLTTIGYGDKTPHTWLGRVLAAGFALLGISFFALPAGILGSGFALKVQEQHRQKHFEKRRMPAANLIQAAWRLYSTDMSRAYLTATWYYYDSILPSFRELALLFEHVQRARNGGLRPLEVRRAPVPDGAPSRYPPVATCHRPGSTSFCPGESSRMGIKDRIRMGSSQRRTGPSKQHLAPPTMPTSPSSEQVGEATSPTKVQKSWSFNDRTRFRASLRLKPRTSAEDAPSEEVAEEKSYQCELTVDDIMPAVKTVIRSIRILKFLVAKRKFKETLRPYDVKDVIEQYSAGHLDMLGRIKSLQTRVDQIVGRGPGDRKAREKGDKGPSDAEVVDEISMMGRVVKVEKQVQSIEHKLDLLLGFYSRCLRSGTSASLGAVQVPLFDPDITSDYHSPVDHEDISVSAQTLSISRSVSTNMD

T1 sequence (Q9NR82 whole entry): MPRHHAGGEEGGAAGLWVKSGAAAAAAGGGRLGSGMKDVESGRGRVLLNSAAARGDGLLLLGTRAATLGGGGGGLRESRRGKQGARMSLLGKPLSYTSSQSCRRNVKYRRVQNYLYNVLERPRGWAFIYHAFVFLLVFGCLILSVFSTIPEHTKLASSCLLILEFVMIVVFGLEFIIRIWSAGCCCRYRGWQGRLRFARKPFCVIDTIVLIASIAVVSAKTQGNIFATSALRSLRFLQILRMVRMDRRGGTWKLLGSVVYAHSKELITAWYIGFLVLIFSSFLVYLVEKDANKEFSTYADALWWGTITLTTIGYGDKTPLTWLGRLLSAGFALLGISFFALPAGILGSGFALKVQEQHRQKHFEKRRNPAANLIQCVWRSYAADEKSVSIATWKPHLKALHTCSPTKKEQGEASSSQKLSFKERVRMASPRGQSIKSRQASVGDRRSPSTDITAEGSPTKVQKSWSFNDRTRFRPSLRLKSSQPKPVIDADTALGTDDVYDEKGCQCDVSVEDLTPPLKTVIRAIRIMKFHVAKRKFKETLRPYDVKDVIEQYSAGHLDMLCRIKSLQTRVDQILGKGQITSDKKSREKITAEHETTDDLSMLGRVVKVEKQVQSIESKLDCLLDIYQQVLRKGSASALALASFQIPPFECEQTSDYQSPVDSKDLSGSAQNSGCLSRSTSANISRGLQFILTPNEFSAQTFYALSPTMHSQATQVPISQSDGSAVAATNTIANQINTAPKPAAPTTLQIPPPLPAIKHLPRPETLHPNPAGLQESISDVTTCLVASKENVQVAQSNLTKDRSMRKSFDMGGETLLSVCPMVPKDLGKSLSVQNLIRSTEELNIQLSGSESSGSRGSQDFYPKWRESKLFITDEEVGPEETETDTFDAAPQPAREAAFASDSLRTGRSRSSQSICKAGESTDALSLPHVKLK

C[C@H](NC(=O)/C=C/c1ccccc1F)c1ccc2c(c1)N(CC1CC1)CCO2 [(S)-2, (S)-N-[1-(4-Cyclopropylmethyl-3,4-dihydro-2H-benzo[1], [4]oxazin-6-yl)-ethyl]-3-(2-fluoro-phenyl)-acrylamide]
remaining activity at 10 µM (Kv7.5): 676 ± 83.5% | remaining activity at 10 µM (Kv7.1): 87.9 ± 2.2% | EC50 (Kv7.2): 170 nM | IC50 (Kv7.2-W236L): 8100 nM | EC50 (Kv7.4): 220 nM
